# Where a name gives a salt, the structure may show the parent alone. Starred links: 1 amine or outer side, 2 acyl side, 3 side chain; linkers in the order of their positions; H or OH if unused. Positions of bridges follow the written chain, without caps; N, C: chain ends. Non-standard residues stand in square brackets, D forms with d. Residues, ends and D or L forms follow the SMILES beside them. Chains are numbered I, II in the order given. Actinocin(9to1) = Cc1c2oc3c(C)ccc(C(=O)[*:1])c3nc-2c(C(=O)[*:2])c(N)c1=O; NMeV = CN[C@H](C(=O)O)C(C)C; Sar = CNCC(=O)O
# Assays:
# Swiss 3T3 fibroblasts = experiment: In vitro cytotoxicity assay on contact inhibited 3T3 fibroblasts (MTS); conditions: for % control (viability of quiescent 3T3 cells): 2 day incubation
# Procedure: A third assay utilized in the present invention involves an in vitro cytotoxicity assay. This assay is used to further characterize the compounds in order to assess toxic activities of compounds on contact inhibited, non-dividing 3T3 fibroblasts. Other toxicity assays may be used.
# Contact inhibited Swiss 3T3 fibroblasts are purchased from ATCC. The cells are maintained in 1640 RPMI supplemented with 10% fetal bovine serum (Gibco).
# On day of assay, cells are detached from flasks by trypsinization, washed in medium and counted. 100 microliters of 2.5 x 10^4 cells per well are plated into Falcon brand 96 well tissue culture plates and cells incubated at 37°C in presence of 5% CO2 for 2 days or until confluent.
# […] All compound dilutions are assayed in triplicate. […] Cells are returned to the incubator for 2 days.
# After 2 day incubation, the 3T3 cells are assayed for viability using an MTS Assay Kit (Promega). Media is added to blank wells for background calculations. After 2 hours incubation in kit reagent, the optical density at 490 nm for each compound and control is determined by plate reader.
# Results are expressed as percent cytotoxicity, i.e., (mean OD of compound wells - background OD)/ (mean OD of controls - background).
# Note that starting concentration of CsA was 1 µM. […]
# IL-4 [1] = experiment: Human primary Th2 cells, anti-CD3/anti-CD28 activated, IL-4 ELISA; assay type: cell-based; conditions: human primary Th2 cells, anti-CD3 and anti-CD28 (Table 5)
# Procedure: (§1) Briefly, CD4^+CD45RA^+ T cells, isolated from donor peripheral blood mononuclear cells of healthy donors, are educated in the presence of anti-CD3/CD28 antibodies and various growth factors to obtain either a Thl-like or Th2-like phenotypes as determined by the known cytokine profiles of these two cell types.
# (§2) Peripheral blood mononuclear cells (PBMC) are prepared from human blood by Ficoll-Hypacque (Pharmacia). The cells are washed two times in Hanks balanced salt solution (HBSS) and counted.
# (§3) Naive T cells (CD4^+/CD45RA ) are prepared by negative selection method using following antibodies and Dynabeads: anti-CD8, anti-HLA-DR, (where HLA means human leucocyte antigen) anti-CD14, anti-CD16, anti-CD19, anti-CD45RO antibodies (all from R&D Systems, 1-2 µg/ml) are added to the cells, and the cells are kept on ice for 30 min. The cells are washed two times in HBSS, and goat anti- mouse Ig-beads, (bead:target ratio, 5:1) are added. The cells and beads are slowly rotated at 4°C for 20 min. (following the protocol supplied from Dynal). The supernatant is removed and fresh goat anti-mouse Ig-beads are added to the supernatant, which is slowly rotated at 4°C for 20 min. The cells are counted and phenotypically characterized by flow cytometric analysis.
# (§4) CD4^+/CD45RA^+ cells at a density of 10^6/ml in RPMI, is prepared and added to RPMI medium containing 10% Hyclone serum/ glutamine and 1-2 µg/ml anti-CD28 Ab. The cells are split in two aliquots. For Th1 cells: anti-IL-4 Ab (1-2 µg/ml), IFN-γ (1 µg/ml, or 5000 units/ml) are added to the wells. For Th2 cells: IL-4 (100-200 ng/ml), anti-IFN-γ neutralizing Ab (1-2 µg/ml), anti-IL-12 neutralizing Ab (1-2 µg/ml) are added into the wells. […] The cells are transferred to fresh wells and grown in 200 units/ml IL-2 for 2 weeks by feeding them every other day with IL-2 containing medium and splitting the cultures 1:2 or 1:3 as needed. The degree of polarization is determined by intracellular staining of cells with anti-IFN-γ and anti-IL-4 antibodies from Pharmingen, and using flow cytometry from Becton Dickinson (BD), according to manufacturers description. The cells are stimulated with PHA and alloantigens at day 14 and 28 as described below. Eight days after the second allostimulation the cells can be used for compound screening or frozen for future use. For compound testing, large quantities of Th1 and Th2 cells derived from a given donor (NYTh1 and NYTh2) were expanded and frozen as aliquots in liquid nitrogen. The cells are thawed and cultured as and when needed. The thawed cells are stimulated with alloantigen/PHA combination. The cells are used for compound screening after 8-10 days in culture.
# (§5) Re-stimulation by allogeneic cells: Human PBMCs, to be used as alloantigens, are isolated from freshly drawn blood by Ficoll separation. […] Cells are counted and diluted to a final concentration of 2 x 10^6/ml in medium containing 10 µg/ml PHA and 200 units/ml IL-2.
# (§6) Ninetysix well Falcon tissue culture plates (Fisher Scientific) are coated with 100 microliters per well of 10 µg/ml anti-CD3 (PharMingen) antibody in phosphate buffered saline (PBS) and stored at 4°C one day before the experiment.
# (§7) On the day of assay, anti-CD3 antibody coated plates are washed with PBS once to remove all soluble anti-CD3 antibody. […] All compounds and controls are assayed in triplicates.
# IL-5 = experiment: Human primary Th2 cells, anti-CD3/anti-CD28 activated, IL-5 ELISA; assay type: cell-based; conditions: human primary Th2 cells, anti-CD3 and anti-CD28 (Table 5)
# Procedure: as §1, §2, §3, §4, §5, §6, §7
# IL-13 = experiment: Human primary Th2 cells, anti-CD3/anti-CD28 activated, IL-13 ELISA; assay type: cell-based; conditions: human primary Th2 cells, anti-CD3 and anti-CD28 (Table 5)
# Procedure: as §1, §2, §3, §4, §5, §6, §7
# IFN-γ = experiment: Human primary Th2 cells, anti-CD3/anti-CD28 activated, IFN-γ ELISA; assay type: cell-based; conditions: human primary Th2 cells, anti-CD3 and anti-CD28 (Table 5)
# Procedure: as §1, §2, §3, §4, §5, §6, §7
# Human Th2 cells = experiment: Human primary Th2 cells, proliferation (viability, MTS assay); assay type: cell-based; conditions: human primary Th2 cells, anti-CD3 and anti-CD28 (Table 5); read-out: Prolif. IC50
# Procedure: as §1, §2, §3, §4, §5, §6, §7
# IL-4 [2] = experiment: In vivo ovalbumin (OVA) mouse model, BALF IL-4; design: species or system mice
# Procedure: This model is designed to determine the ability of a test article to modulate an antigen-induced pulmonary inflammatory cell accumulation in sensitized Balb/c mice from Charles River Laboratories. The mice are given a two week time period from arrival date prior to sensitizations.
# On days 0, 7, 14, each animal is injected intraperitoneal (i.p.) with a 0.2 ml Ovalbumin Hydragel solution. Each animal receives 10 µg of Ovalbumin in 0.2 mL of Hydragel, aluminum hydroxide adsorptive gel containing 2% aluminum oxide. […] On day 22, BALF samples are collected from one group of animals and used for cytokine analysis. On day 24, BALF is obtained from a second group of animals and used for differential cell counts.
# Test System: Female Babl/cJ mice (Jackson Laboratories), approximately 6-9 weeks old, each weighing approximately 20 to 25 grams, are divided into ten animals per group.
# Sensitization Regimen: Mice are sensitized by an intraperitoneal injection of 10 µg ovalbumin (OVA) mixed in 4 mg aluminum hydroxide Al(OH)3 gel suspension in 0.2 ml sterile saline on Days 0, 7 and 14. This suspension is prepared one hour before intraperitoneal injection into each mouse. The animals are ready for OVA challenge on Day 21.
# Antigen Challenge: Animals are exposed to aerosolized OVA on day 21 (5% w/v in sterile saline) for 20 minutes. The aerosol is generated by a PARI-Master nebulizer, the outlet of which is connected to a small Plexiglas® chamber containing the animals. Bronchoalveolar lavage is performed on Day 22.
# Method of Study Performance: On day 24, 72 hours following aerosol OVA exposure, a separate group of animals are anesthetized with urethane (0.15 - 0.2 gm/kg) and the trachea is exposed and cannulated. Lungs are lavaged with 2 x 0.5 ml Hank's balanced salt solution without Ca^2+ and Mg^2+ (HBSS; Gibco, Grand Island, NY) containing 0.1% EDTA. Lavage fluid is recovered after 30 sec by gentle aspiration and pooled for each animal. Samples are centrifuged at 2000 rpm for 15 minutes at 5°C. After centrifugation, individual supernatants are stored frozen at -80°C. The resulting pellet is resuspended in 0.5 ml of HBSS containing 0.1% EDTA. Total cells and eosinophils are determined using a Technicon Hl and cytoslides, respectively.
# Administration of the Test/Control Article: The test article and vehicle dosing preparations are administered once to each anesthetized mouse intranasally using a 200 µl pipette at 30-60 minutes prior to OVA challenge. Each animal receives 50 µl (25 µl/nostril) at each time point. Method of Euthanasia: Urethane overdose at in-life completion.
# Compounds administered 30 minutes before aerosol ovalbumin challenge in ova sensitized mice. BALF harvested 24 hours after aerosol challenge. N = 6/group.
# Mice (12 animals per group) are sensitized with 0.2 ml of an AlOH3 hydrogel suspension (2% AlOH3) containing 50 µg/ml ovalbumin on days 0, 7 and 14. […] The glucocorticosteroid budesonide (10 mg/kg) is included as a control. All compounds are given in 0.5% methylcellulose/0.2% Tween 80, intranasally (50µl). After the OVA challenge for 24 hours, the mice underwent bronchoalveolar lavage and IL-4 and IL-13 levels in the BALF are determined by ELISA. Another group of mice underwent bronchoalveolar lavage (72 hours after treatment) to determine the number of the eosinophils (*p<0.05, **p<0.01).
# Compounds are given (30 mg/kg), intranasally, once, 30 min before OVA challenge unless noted otherwise. BAL fluids are collected 24 hours after OVA challenge and the cytokine levels are measured by standard ELISAs.
# eosinophils = experiment: In vivo ovalbumin (OVA) mouse model, BALF eosinophils; design: species or system mice; conditions: i.n.
# Procedure: On days 0, 7, 14, each animal is injected intraperitoneal (i.p.) with a 0.2 ml Ovalbumin Hydragel solution. Each animal receives 10 µg of Ovalbumin in 0.2 mL of Hydragel, aluminum hydroxide adsorptive gel containing 2% aluminum oxide. […] On day 24, BALF is obtained from a second group of animals and used for differential cell counts. […]
# Sensitization Regimen: Mice are sensitized by an intraperitoneal injection of 10 µg ovalbumin (OVA) mixed in 4 mg aluminum hydroxide Al(OH)3 gel suspension in 0.2 ml sterile saline on Days 0, 7 and 14. […] The animals are ready for OVA challenge on Day 21. […]
# Method of Study Performance: On day 24, 72 hours following aerosol OVA exposure, a separate group of animals are anesthetized with urethane (0.15 - 0.2 gm/kg) and the trachea is exposed and cannulated. […] Total cells and eosinophils are determined using a Technicon Hl and cytoslides, respectively. […]
# Compounds are given (30 mg/kg), intranasally, once, 30 min before OVA challenge unless noted otherwise. […] From a parallel set of animals, BAL are collected at 48 hours and the number of eosinophils are determined.
Compound,% control (viability of quiescent 3T3 cells) (Swiss 3T3 fibroblasts; 0.001 µM) [% control],% control (viability of quiescent 3T3 cells) (Swiss 3T3 fibroblasts; 0.003 µM) [% control],% control (viability of quiescent 3T3 cells) (Swiss 3T3 fibroblasts; 0.01 µM) [% control],% control (viability of quiescent 3T3 cells) (Swiss 3T3 fibroblasts; 0.03 µM) [% control],% control (viability of quiescent 3T3 cells) (Swiss 3T3 fibroblasts; 0.1 µM) [% control],% control (viability of quiescent 3T3 cells) (Swiss 3T3 fibroblasts; 3 µM) [% control],% control (viability of quiescent 3T3 cells) (Swiss 3T3 fibroblasts; 10 µM) [% control],toxic effects on the viability of quiescent 3T3 cells (in words) (Swiss 3T3 fibroblasts; non-dividing 3T3 cells),IC50 (IL-4 [1]) [µM],IC50 (IL-5) [µM],IC50 (IL-13) [µM],IC50 (IFN-γ) [µM],IC50 (Human Th2 cells) [µM],"IL-4 % ctl At 24hours (IL-4 [2]; i.n., 10 mg/kg) [% ctl]","IL-4 % ctl At 24hours (IL-4 [2]; i.n., 12 mg/kg) [% ctl]","IL-4 % ctl At 24hours (IL-4 [2]; i.n., 30 mg/kg, once, 30 min before OVA challenge) [% ctl]","IL-4 % ctl At 24hours (IL-4 [2]; i.p., 30 mg/kg) [% ctl]",Eos % ctl At 72hours (eosinophils; 10 mg/kg) [% ctl],Eos % ctl At 72hours (eosinophils; 30 mg/kg) [% ctl]
"Cc1c2oc3c(C)ccc(C(=O)N[C@@H]4C(=O)N[C@H](C(C)C)C(=O)N5CCC[C@H]5C(=O)N(C)CC(=O)N(C)[C@@H](C(C)C)C(=O)O[C@@H]4C)c3nc-2c(C(=O)N[C@@H]2C(=O)N[C@H](C(C)C)C(=O)N3CCC[C@H]3C(=O)N(C)CC(=O)N(C)[C@@H](C(C)C)C(=O)O[C@@H]2C)c(N)c1=O [Actinomycin D] (I: T[dV]P[Sar][NMeV] / II: T[dV]P[Sar][NMeV]; ester I:1-I:C, II:1-II:C; linker I:N-II:N via Actinocin(9to1))",79.0,74.9,67.2,33.9,28.2,29.7,16.8,effected the viability,–,–,–,–,–,–,–,–,–,–,–
O=C(O)c1[nH]c2ccccc2c1Nc1ccncc1 [Example 28 (maleate salt)],–,–,–,–,–,–,–,–,0.24,> 10,~10,> 10,> 10,57,50,34,43,53,28
